Source: patent US6808936B1, “Methods and compositions for use in the diagnosis and treatment of chronic immune disease” (R.E.D. Laboratories, N.V., priority 2000, dated 2004)

What was measured:
Test in all cases: Caspase activity in extracts of U937 cell line induced to apoptosis with camptothecin
Format in all cases: cell-based, human
caspase 6 = conditions: U937 Cell Line Induced (G3), camptothecin 10 micrograms per mL; n 4; uninduced 162 ± 20
Experimental: (§1) Caspase levels in PBMC extracts were measured using a commercially available kit (BioSource International) based on a calorimetric assay. Briefly, PBMC extracts were diluted to a final concentration of 1 microgram of protein per 50 microliters of diluent (provided with the kit). This sample (1 microgram) was then added to 55 microliters of assay buffer containing a substrate specific for the particular caspase to be measured (if caspase activity is present, the substrate is cleaved, liberating color). Cell extracts to be used as positive and negative controls for caspase activity levels were prepared using the method of […] et al. (1999), Oncogene 14:1007-1012). Briefly, the human monocytic leukemia cell line U937 was induced to begin apoptosis by treatment with camptothecin at a concentration of 10 micrograms per mL of 2×10^6 cells. Uninduced cells were used as the negative control. Also included as a negative control were normal human monocytes, elutriated and frozen as live cells. All cell extracts and protein determinations were made as described above. The reaction mixture (1 microgram protein sample+caspase substrate) was incubated at 37 degrees C. for 20-24 hours. The resultant color was measured using a spectrophotometer at a wavelength of 405 nm. Background absorbance (i.e., from a reagent blank without protein) was subtracted from all sample values. All assays were performed in triplicate, […]

caspase 3 = system: caspase 3
Experimental: as §1

caspase 9 = conditions: U937 Cell Line Induced (G3), camptothecin 10 micrograms per mL; n 4; uninduced 45 ± 6
Experimental: as §1

caspase 2 = conditions: U937 Cell Line Induced (G3), camptothecin 10 micrograms per mL; n 4; uninduced 50 ± 32
Experimental: as §1

caspase 8 = conditions: U937 Cell Line Induced (G3), camptothecin 10 micrograms per mL; n 4; uninduced 91 ± 11
Experimental: as §1

## CC[C@@]1(O)C(=O)OCc2c1cc1n(c2=O)Cc2cc3ccccc3nc2-1 [camptothecin]
Caspase 6
  C6 caspase activity: 277 ± 57
Caspase 3; Table 2: U937 Cell Line Induced (G3), camptothecin, mean ± s.d. of triplicates, uninduced 82 ± 9
  Caspase 3 Activity: 336 ± 6 mAU
Caspase 3; U937 Cell Line Induced (G3), camptothecin 10 micrograms per mL, n 4, uninduced 73 ± 26
  C3 caspase activity: 304 ± 50
Caspase 9
  C9 caspase activity: 90 ± 29
Caspase 2
  C2 caspase activity: 251 ± 39
Caspase 8
  C8 caspase activity: 207 ± 52
